US6825191B2, “Benzodiazepine derivatives” (Ajinomoto Co., Inc., priority 2000, dated 2004)

Tests used:
[1] = biological target: T1, activated human blood coagulation factor X (Homo sapiens, UniProt P00742); assay: Determination of activity of inhibiting the activated blood-coagulation factor X (chromogenic substrate, initial rate); assay type: biochemical; conditions: negative logarithm of concentration inhibiting 50% of initial rate, tris hydrochloride buffer pH 8.4, room temperature; for IC50: read-out: Activity of inhibiting activated blood coagulation factor X (pIC50) (converted)
T1 construct: purchased Enzyme Research Co
T1 sequence (P00742 235-488 limits assumed): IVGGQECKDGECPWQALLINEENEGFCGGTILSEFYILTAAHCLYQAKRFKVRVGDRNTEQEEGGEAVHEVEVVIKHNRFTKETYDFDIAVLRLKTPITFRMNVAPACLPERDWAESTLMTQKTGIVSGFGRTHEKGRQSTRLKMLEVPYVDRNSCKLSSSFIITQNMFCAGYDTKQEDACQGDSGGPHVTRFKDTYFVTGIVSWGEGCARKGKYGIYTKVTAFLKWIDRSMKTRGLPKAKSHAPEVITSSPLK
T1 sequence (P00742 41-179 partner limits assumed): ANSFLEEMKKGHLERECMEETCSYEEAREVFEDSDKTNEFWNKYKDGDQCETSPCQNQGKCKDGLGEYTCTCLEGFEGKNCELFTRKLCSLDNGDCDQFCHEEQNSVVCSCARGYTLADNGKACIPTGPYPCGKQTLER
Description: Determination of Activity of inhibiting the Activated Blood-coagulation Factor X
130 μl of 100 mM tris hydrochloride buffer adjusted to pH 8.4 was added to 10 μl of an aqueous solution of a compound to be tested. Then 10 μl of a 0.5 unit/ml solution of activated human blood coagulation factor X (a product of Enzyme Research Co.) in tris hydrochloride buffer of pH 8.4 was added to the resultant mixture. After the incubation at room temperature for 10 minutes, 50 μl of a solution of N-benzoyl-L-isoleucyl-L-glutamyl-glycyl-L-arginyl-P-nitroanilide hydrochloride (a product of Peptide Institute Inc.) adjusted to 0.8 mM with tris hydrochloride (pH 8.4) was added thereto. The a absorbance was determined and then the initial reaction rate was determined. A control was prepared in the same manner as that described above except that the solution of the compound to be tested was replaced with 10 μl of tris hydrochloride buffer adjusted to pH 8.4. The absorbance was determined with MICROPLATE READER Model 3550-UV (a product of BIO RAD) at a wave length of 405 nm at intervals of 15 seconds for 16 minutes.

[2] = system: blood plasma; assay: Determination of blood anticoagulating activity by prothrombin time (PT) determination method; assay type: biochemical, human; conditions: negative logarithm of concentration which elongated PT of the control to twice as long; blood plasma of healthy people
Description: Determination of Blood Anticoagulating Activity
The blood anticoagulating activity was determined by a prothrombin time (PT) determination method. The PT was determined as follows: The blood was taken from healthy people. 3.8% aqueous trisodium citrate solution was added to the blood in a volume ratio of 1:10. The blood plasma was separated by the centrifugation. 5 μl of DMSO solution containing a test compound was added to 45 μl of the blood plasma. After the incubation apt room temperature for 2 minutes, a test tube containing the blood plasma solution was placed in Sysmex CA-3000 fully automatic blood coagulation determination device (a product of Toa Medical Electronics Co., Ltd), and incubated at 37° C. for 3 minutes. 100 μl of Sysmex PT II (rabbit brain tissue thromboplastin, 13.2 mM calcium chloride; a product of Toa Medical Electronics Co., Ltd) was fed into the test tube. PT was automatically determined with the device. A sample containing 5 μl of DMSO in place of the solution of the test compound was used as the control. The negative logarithm (pPT2) of the concentration of the test compound which elongated PT of the control to the twice as long was determined, and employed as the index of the blood anticoagulating activity.

[3] = biological target: T2, human thrombin (Homo sapiens, UniProt P00734); assay: Determination of thrombin-inhibiting activity (chromogenic substrate S-2238, initial rate); assay type: biochemical; conditions: negative logarithm of concentration inhibiting 50% of initial rate, tris hydrochloride buffer pH 8.4, room temperature; for IC50: read-out: Thrombin-inhibiting activity (pIC50) (converted)
T2 construct: solution of human thrombin (a product of SIGMA Co.); purchased SIGMA Co
Description: Determination of Thrombin-inhibiting Activity
130 μL of 100 mM tris hydrochloride buffer adjusted to pH 8.4 was added to 10 μl of an aqueous solution of a test compound. Then 10 μl of a solution of human thrombin (a product of SIGMA Co.) adjusted to 2 units/ml with tris hydrochloride buffer of pH 8.4 was added to the resultant mixture. After the incubation at room temperature for 10 minutes, 50 μl of a solution of D-phenylalanine-L-pipecolyl-L-arginine-P-nitroanilide dihydrochloride (S-2238; a product of Daiichi Kagaku Yakuhin Co.) adjusted to 0.4 mM with tris hydrochloride buffer of pH 8.4 was added thereto. The absorbance was determined and then the initial reaction rate was determined. A control was prepared in the same manner as that described above except that the solution of the compound to be tested was replaced with 10 μl of tris hydrochloride buffer adjusted to pH 8.4. The absorbance was determined with MICROPLATE READER Model 3550-UV (a product of BIO RAD) at a wave length of 405 nm at intervals of 15 seconds for 16 minutes. The negative logarithm (pIC50) of a concentration of the test compound which inhibits 50% of the activity (initial rate) of the thrombin in the absence of the test compound was determined, and employed as the index of the activity of inhibiting thrombin.

SMILES	IC50 [1] [nM]	Human blood anticoagulating activity (pPT2) [2]	IC50 [3] [nM]	Activity of inhibiting activated blood coagulation factor X (pIC50) [1]	Thrombin-inhibiting activity (pIC50) [3]
CN1CCN=C1c1ccc(CN2C(=O)CN(C(=O)c3ccc(Cl)cc3)Cc3c(Cl)cccc32)cc1.O=C(O)C(F)(F)F [Compd. of Ex. 122, 6-chloro-4-(4-chlorobenzoyl)-1-[4-(1-methyl-4,5-dihydro-1H-imidazol-2-yl)benzyl]-1,3,4,5-tetrahydrobenzo[e][1,4]-diazepin-2-on trifluoroacetate]	50.1	5.6	> 100000		
CN1CCN=C1c1ccc(CN2C(=O)CN(C(=O)c3ccc(Cl)cc3)Cc3ccccc32)cc1.O=C(O)C(F)(F)F [Compd. of Ex. 125, 4-(4-chlorobenzoyl)-1-[4-(1-methyl-4,5-dihydro-1H-imidazol-2-yl)benzyl]-1,3,4,5-tetrahydrobenzo[e][1,4]-diazepin-2-on trifluoroacetate]	251	5.6	> 100000		
CC(C)N1CCC(CN2C(=O)CN(C(=O)c3ccc(Cl)cc3)Cc3ccccc32)CC1.O=C(O)C(F)(F)F [Compd. of Ex. 142, 4-(4-chlorobenzoyl)-1-[(1-isopropyl-4-piperidinyl)methyl]-1,3,4,5-tetrahydrobenzo[e][1,4]diazepin-2-on trifluoroacetate]	794	5.5	39800		
O=C(O)C(F)(F)F.O=C(c1ccc(Cl)cc1)N1CC(=O)N(CC2CCN(C3CCCCC3)CC2)c2ccccc2C1 [Compd. of Ex. 143, 4-(4-chlorobenzoyl)-1-[(1-cyclohexyl-4-piperidinyl)methyl]-1,3,4,5-tetrahydrobenzo[e][1,4]diazepin-2-on mono(trifluoroacetate)]	316	5.4	63100		
CN1CCN=C1c1ccc(CN2C(=O)CN(C(=O)c3ccc(Cl)cc3)Cc3ccc(CCC(=O)N4CCOCC4)cc32)cc1.O=C(O)C(F)(F)F [Compd. of Ex. 144, 4-(4-chlorobenzoyl)-1-[4-(1-methyl-4,5-dihydro-1H-imidazol-2-yl)benzyl]-8-[3-(4-morpholinyl)-3-oxopropyl]-1,3,4,5-tetrahydrobenzo[e][1,4]diazepin-2-on mono(trifluoroacetate)]	200	5.6	79400		
CC(C)N1CCC(CCN2C(=O)CN(C(=O)c3ccc(Cl)cc3)Cc3ccccc32)CC1.O=C(O)C(F)(F)F [Compd. of Ex. 169, 4-(4-chlorobenzoyl)-1-[2-(1-isopropyl-4-piperidinyl)ethyl]-1,3,4,5-tetrahydrobenzo[e][1,4]diazepin-2-on trifluoroacetate]	316	5.4	> 100000		
CN1CC[N+](C)=C1N1CCC(CCN2C(=O)CN(C(=O)c3ccc(Cl)cc3)Cc3ccccc32)CC1.O=C([O-])C(F)(F)F [Compd. of Ex. 178, 4-(4-chlorobenzoyl)-1-[2-(1-(1,3-dimethyl-4,5-dihydro-1H-imidazo-3-ium-2-yl)-4-piperidinyl)ethyl]-1,3,4,5-tetra-hydrobenzo[e][1,4]diazepin-2-on trifluoroacetate]		5.8		7.1	<4.0
O=C(O)C(F)(F)F.O=C(c1ccc(CN2C(=O)CN(C(=O)c3ccc(Cl)cc3)Cc3ccccc32)nc1)N1CC=CC1 [Compd. of Ex. 181, 4-(4-chlorobenzoyl)-1-[(5-(2,5-dihydro-1H-pyrrol-1-ylcarbonyl)-2-pyridinyl)methyl]-1,3,4,5-tetrahydrobenzo[e][1,4]-diazepin-2-on trifluoroacetate]	79.4	5.3	> 100000		
CN1CCN=C1c1ccc(CN2C(=O)CN(C(=O)c3ccc(Cl)cc3)Cc3ccc(C(=O)O)cc32)cc1.O=C(O)C(F)(F)F [Compd. of Ex. 203, 4-(4-chlorobenzoyl)-2-oxo-1-[4-(1-methyl-4,5-dihydro-1H-imidazol-2-yl)benzyl]-2,3,4,5-tetrahydro-1H-benzoyl[e][1,4]-diazepine-8-carboxylic acid trifluoroacetate]		5.5		7.1	<4.0
CCOC(=O)c1ccc2c(c1)N(Cc1ccc(C3=NCCN3C)cc1)C(=O)CN(C(=O)c1ccc(Cl)cc1)C2.O=C(O)C(F)(F)F [Compd. of Ex. 204, ethyl 4-(4-chlorobenzoyl)-2-oxo-1-[4-(1-methyl-4,5-dihydro-1H-imidazol-2-yl)benzyl]-2,3,4,5-tetrahydro-1H-benzoyl[e][1,4]diazepine-8-carboxylate trifluoroacetate]		5.2		6.5	<4.0
CCOC(=O)c1ccc2c(c1)N(Cc1ccc(C3=[N+](C)CCN3C)cc1)C(=O)CN(C(=O)c1ccc(Cl)cc1)C2.O=C([O-])C(F)(F)F [Compd. of Ex. 206, 2-[4-((4-(4-chlorobenzoyl)-8-(ethoxycarbonyl)-2-oxo-2,3,4,5-tetrahydro-1H-1,4-benzodiazepin-1-yl)methyl)phenyl]-1,3-dimethyl-4,5-dihydro-1H-imidazol-3-ium trifluoroacetate]	200	5.5	> 100000		
CN1CC[N+](C)=C1c1ccc(CN2C(=O)CN(C(=O)c3ccc(Cl)cc3)Cc3c(Cl)cccc32)cc1.O=C([O-])C(F)(F)F [Compd. of Ex. 207, 6-chloro-4-(4-chlorobenzoyl)-1-[4-(1,3-dimethyl-4,5-dihydro-1H-imidazol-3-ium-2-yl)benzyl]-1,3,4,5-tetrahydro-benzo[e][1,4]diazepin-2-on trifluoroacetate]	31.6	5.7	> 100000		
